Measurements taken from ChEMBL document CHEMBL4351025, “Indole-nitroimidazole conjugates as efficient manipulators to decrease the genes expression of methicillin-resistant Staphylococcus aureus” (Eur J Med Chem, 2019).
In brackets after ≈: the same amount, converted by molar mass.

Tests used:
Staphylococcus aureus [1] = assay: Antibacterial activity against methicillin-resistant Staphylococcus aureus N315 incubated for 24 hrs by two fold serial dilution method; assay type: functional; conditions: N315, 24 h
Enterococcus faecalis = assay: Antibacterial activity against Enterococcus faecalis incubated for 24 hrs by two fold serial dilution method; assay type: functional
Staphylococcus aureus [2] = assay: Antibacterial activity against Staphylococcus aureus ATCC 29213 incubated for 24 hrs by two fold serial dilution method; assay type: functional; conditions: ATCC 29213, 24 h
Klebsiella pneumoniae = assay: Antibacterial activity against Klebsiella pneumoniae incubated for 24 hrs by two fold serial dilution method; assay type: functional
Escherichia coli = assay: Antibacterial activity against Escherichia coli incubated for 24 hrs by two fold serial dilution method; assay type: functional
Pseudomonas aeruginosa = assay: Antibacterial activity against Pseudomonas aeruginosa incubated for 24 hrs by two fold serial dilution method; assay type: functional
Acinetobacter baumannii = assay: Antibacterial activity against Acinetobacter baumannii incubated for 24 hrs by two fold serial dilution method; assay type: functional
[3] = Cytotoxicity activity against human A549 cells assessed as cell viability at 2 to 64 ug/ml incubated for 24 hrs by MTT assay relative to control; assay type: cell-based; conditions: read-out: Activity

Compound | MIC (Staphylococcus aureus [1]) | MIC (Enterococcus faecalis) | MIC (Staphylococcus aureus [2]) | MIC (Klebsiella pneumoniae) | MIC (Escherichia coli) | MIC (Pseudomonas aeruginosa) | MIC (Acinetobacter baumannii) | viability at 24 h [3]
CC(=O)Cn1cc(/C=C(/C(C)=O)n2cc([N+](=O)[O-])nc2C)c2ccccc21 | 0.5 mg/L (≈ 1.36 µM) | 16 mg/L (≈ 43.7 µM) | 256 mg/L (≈ 699 µM) | 2 mg/L (≈ 5.46 µM) | 8 mg/L (≈ 21.8 µM) | 512 mg/L (≈ 1400 µM) | 128 mg/L (≈ 349 µM) | 
COc1cccc2c1C(=O)c1c(O)c3c(c(O)c1C2=O)C[C@@](O)(C(=O)CO)C[C@@H]3O[C@H]1C[C@H](N)[C@H](O)[C@H](C)O1 [DOXORUBICIN] |  |  |  |  |  |  |  | < 75%
CCn1cc(C(=O)O)c(=O)c2cc(F)c(N3CCNCC3)cc21 [NORFLOXACIN] | 8 mg/L (≈ 25.1 µM) | 4 mg/L (≈ 12.5 µM) | 2 mg/L (≈ 6.26 µM) | 4 mg/L (≈ 12.5 µM) | 16 mg/L (≈ 50.1 µM) | 2 mg/L (≈ 6.26 µM) | 8 mg/L (≈ 25.1 µM) | 
CC(=O)/C(=C/c1cn(CC(=O)N(C2CCCCC2)C2CCCCC2)c2ccccc12)n1cc([N+](=O)[O-])nc1C | 2 mg/L (≈ 3.76 µM) | 128 mg/L (≈ 241 µM) | 512 mg/L (≈ 963 µM) | 8 mg/L (≈ 15 µM) | 32 mg/L (≈ 60.2 µM) | 512 mg/L (≈ 963 µM) | 512 mg/L (≈ 963 µM) | 
NC1CCN(c2c(F)cc3c(=O)c(C(=O)O)cn(C4CC4)c3c2Cl)C1 (stereo unspecified) [CLINAFLOXACIN] | 16 mg/L (≈ 43.7 µM) | 2 mg/L (≈ 5.47 µM) | 0.5 mg/L (≈ 1.37 µM) | 32 mg/L (≈ 87.5 µM) | 64 mg/L (≈ 175 µM) | 32 mg/L (≈ 87.5 µM) | 16 mg/L (≈ 43.7 µM) | 
CC(=O)/C(=C/c1cn(CC(=O)N2CCCC2)c2ccccc12)n1cc([N+](=O)[O-])nc1C | 64 mg/L (≈ 152 µM) | 64 mg/L (≈ 152 µM) | 64 mg/L (≈ 152 µM) | 16 mg/L (≈ 38 µM) | 8 mg/L (≈ 19 µM) | 2 mg/L (≈ 4.75 µM) | 1 mg/L (≈ 2.37 µM) | 
